Data as given in patent US20120149080A1, “YEAST PRODUCTION CULTURE FOR THE PRODUCTION OF BUTANOL” (Butamax(TM) Advanced Biofuels LLC, priority 2010, published 2012).

Experiments:
S. cerevisiae PNY0602 = test: Glucose utilization rate under non-growing conditions in buffer; assay type: cell-based, Saccharomyces cerevisiae; conditions: PNY0602, 20 g/L isobutanol
Protocol: Isobutanol production may or may not be coupled to growth. Therefore we measured the glucose consumption rates under non-growing conditions using three different pH buffers.
Glucose consumption rates were determined in phosphate buffer pH 6.5 as outlined by Diderich, J. A., et al., Microbiology, 1999, 145 p. 3447-54. We also determined the glucose consumption rates at pH 5.25 and pH 4.0 using MES buffer.
Cells were grown overnight at 30° C. in YPD (125 ml in a 500 ml flask). Cells were centrifuged and resuspended in buffer (0.1M phosphate buffer pH 6.0 or 0.1M MES buffer pH 5.25 or 0.1M MES buffer pH 4.0), washed one time, and then resuspended such that each cell suspension had approximately 16 OD or 160 million cell/ml. 10 ml of these stock cells were transferred to flasks containing 10 ml of the corresponding buffer containing 40 g/L glucose and varying concentrations of isobutanol. At various times samples (500 to 700 ul) were transferred to a tube containing an equal volume of 10% TCA. Samples were centrifuged and glucose determined in the YSI glucose analyzer. Glucose consumption rates were determined by plotting the amount of glucose consumed over time.

[1] = Alcohol concentration of cultures after 24 hours by HPLC; assay type: physicochemical; conditions: Example 2 cultures, 30° C.
Protocol: Saccharomyces cerevisiae BY4743 (ATCC 201390) was plated from a freezer vial onto YPD agar (Teknova, Hollister, Calif.; Cat. #Y1000) and incubated overnight at 30° C. Cells from the YPD plate were inoculated into a 25 ml pre-culture of YPD broth (Teknova; Cat. #Y5000) with an initial OD600 of 0.06 to 0.08. The pre-culture was grown for 7 hours in an aerobic shaker at 30° C. An aliquot of the pre-culture was inoculated into 200 ml of YPD broth, with an initial OD600 of 0.06 to 0.08, and this culture was incubated with aeration at 30° C. for approximately 17 hours. The optical density of the culture was measured, the culture was centrifuged and the cells were resuspended to yield an OD600 of 5 in fresh YPD broth. This is referred to as a high cell density (HCD) culture. […] This is referred to as a low the cell density (LCD) culture. These cultures were incubated at 30° C. with shaking for 30 minutes for an acclimation period. At the end of the 30 minute acclimation period, the OD600 was measured. 5 ml of low or high cell density culture was dispensed to 15 ml conical tubes which contained different concentrations of the alcohol to be tested. […] All samples were filtered with Acrodisc CR PTFE 0.2 μm filters (Pall Life Sciences, Port Washington, N.Y.) and analyzed using a Shodex SH1011 column (8 mm ID×300 mm length; Showa Denko America, Inc., New York, N.Y.) and a Shodex SH-G as a guard column. […]

CC(C)CO [Isobutanol, isobutanol]
Glucose Utilization (g/gdcw/h) (S. cerevisiae PNY0602; pH 4, non-growing): 0.9 g/gdcw/h
Glucose Utilization (g/gdcw/h) (S. cerevisiae PNY0602; pH 5.25, non-growing): 1.1 g/gdcw/h
Glucose Utilization (g/gdcw/h) (S. cerevisiae PNY0602; pH 6.5, non-growing): 0.7 g/gdcw/h
alcohol lost during the incubation period [1]: < 0.01%
